{"source": "patent US20030150812A1", "about": "“Novel parallel throughput system” (priority 2001, published 2003)", "key": {"α3β4 nicotinic receptor": {"molecular_target": "α3β4 nicotinic receptor (Homo sapiens, UniProt P30926+P32297)", "sequence (P32297 32-505)": "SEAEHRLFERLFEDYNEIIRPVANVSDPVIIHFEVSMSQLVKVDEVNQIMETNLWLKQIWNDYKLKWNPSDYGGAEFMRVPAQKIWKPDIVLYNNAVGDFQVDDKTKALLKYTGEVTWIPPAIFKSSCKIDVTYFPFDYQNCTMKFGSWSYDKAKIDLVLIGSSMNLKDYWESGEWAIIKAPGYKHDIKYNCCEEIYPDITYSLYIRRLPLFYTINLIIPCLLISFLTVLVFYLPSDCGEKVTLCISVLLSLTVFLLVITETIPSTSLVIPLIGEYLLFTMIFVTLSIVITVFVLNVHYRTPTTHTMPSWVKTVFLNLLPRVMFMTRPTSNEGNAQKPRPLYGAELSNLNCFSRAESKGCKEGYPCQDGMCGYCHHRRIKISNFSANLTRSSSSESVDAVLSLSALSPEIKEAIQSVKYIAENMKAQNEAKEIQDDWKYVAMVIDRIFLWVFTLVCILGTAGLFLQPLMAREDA", "sequence (P30926 22-498)": "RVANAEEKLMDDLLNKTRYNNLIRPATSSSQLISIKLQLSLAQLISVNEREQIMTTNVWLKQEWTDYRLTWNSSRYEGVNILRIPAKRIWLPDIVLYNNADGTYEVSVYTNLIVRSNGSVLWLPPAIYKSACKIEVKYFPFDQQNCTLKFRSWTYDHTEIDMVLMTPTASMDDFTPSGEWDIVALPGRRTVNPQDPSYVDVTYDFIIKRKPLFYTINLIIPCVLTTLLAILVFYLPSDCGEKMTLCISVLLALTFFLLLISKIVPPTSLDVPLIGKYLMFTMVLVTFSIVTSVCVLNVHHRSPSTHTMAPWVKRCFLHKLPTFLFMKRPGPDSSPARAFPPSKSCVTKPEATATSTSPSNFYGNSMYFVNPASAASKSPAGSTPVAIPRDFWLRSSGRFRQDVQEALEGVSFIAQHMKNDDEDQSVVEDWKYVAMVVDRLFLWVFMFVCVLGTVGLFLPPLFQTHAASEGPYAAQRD", "details": "Column B with α3β4, 24 cm, 50 nM injection, 10 mM Amm Acetate pH 7.4 and 1 nM dinitrobenzoic acid, 261 nm", "protocol": "(§1) A parallel screen was run using two separate columns containing the different nicotinic receptors α3β2 and […] in the separate columns. […] The mobile phase contained 10 mM Amm Acetate at pH 7.4 and 1 nM Dinitrobenzoic acid. The columns were 24 cm in length."}, "α3β2 nicotinic receptor": {"molecular_target": "α3β2 nicotinic receptor (Homo sapiens, UniProt P17787+P32297)", "sequence (P32297 32-505)": "as the sequence (P32297 32-505) above", "sequence (P17787 26-502)": "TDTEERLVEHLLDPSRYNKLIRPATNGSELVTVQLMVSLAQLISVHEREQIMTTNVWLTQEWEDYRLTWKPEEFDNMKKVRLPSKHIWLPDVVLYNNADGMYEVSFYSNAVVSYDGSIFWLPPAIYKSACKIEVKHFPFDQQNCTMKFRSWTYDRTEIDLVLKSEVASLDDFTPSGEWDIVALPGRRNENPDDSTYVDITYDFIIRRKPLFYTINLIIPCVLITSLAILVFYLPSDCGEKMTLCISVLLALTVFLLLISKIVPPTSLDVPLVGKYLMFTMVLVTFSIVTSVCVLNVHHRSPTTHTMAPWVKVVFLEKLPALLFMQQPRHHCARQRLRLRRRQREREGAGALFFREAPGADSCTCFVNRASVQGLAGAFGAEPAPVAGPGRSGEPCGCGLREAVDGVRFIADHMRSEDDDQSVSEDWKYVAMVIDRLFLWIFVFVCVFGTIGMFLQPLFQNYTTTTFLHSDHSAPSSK", "details": "Column A with α3β2, 24 cm, 50 nM injection, 10 mM Amm Acetate pH 7.4 and 1 nM dinitrobenzoic acid, 261 nm", "protocol": "as §1"}}}
{"compound": "CN1CCCC1c1cccnc1", "note": "(centres unmarked) [nicotine]", "values": [{"measurement": "time on receptor column", "setting": "α3β4 nicotinic receptor", "value": 0.98, "unit": "min"}, {"measurement": "time on receptor column", "setting": "α3β2 nicotinic receptor", "value": 2.25, "unit": "min"}]}
